# Test results as given in patent publication US9060511B2, “Compositions of dibromomalanomide and their use as biocides” (Rohm and Haas Company, priority 2010, dated 2015).
# Experiments:
# [1] = tested on: consortium of bacteria: mixture of Pseudomonas aeruginosa, Klebsiella pneumoniae, Staphylococcus aureus, and Bacillus subtilis; experiment: Growth inhibition assay (microtiter plate-based synergy assay); assay type: cell-based; conditions: for I90 (concentration required to inhibit at least 90% of bacterial growth when used alone) / I90 (concentration required for at least 90% inhibition of growth): active alone, 37° C., 24 hr; for I90 (concentration required for at least 90% inhibition of growth): Example 2; for % Inhibition of Growth: Example 3
# From the text: (§1) The results provided in the Examples are generated using a growth inhibition assay. Details of each assay are provided below.
# (§2) Growth Inhibition Assay. The growth inhibition assay used in the Examples measures inhibition of growth (or lack thereof) of a microbial consortium Inhibition of growth can be the result of killing of the cells (so no growth occurs), killing of a significant portion of the populations of cells so that regrowth requires a prolonged time, or inhibition of growth without killing (stasis). Regardless of the mechanism of action, the impact of a biocide (or combination of biocides) can be measured over time on the basis of an increase in the size of the community.
# (§3) The assay measures the efficacy of one or more biocides at preventing growth of a consortium of bacteria in a dilute mineral salts medium. The medium contains (in mg/l) the following components: FeCl3.6H2O (1); CaCl2.2H2O (10); MgSO4.7H2O (22.5); (NH4)2SO4 (40); KH2PO4 (10); K2HPO4 (25.5); Yeast Extract (10); and glucose (100). After all components are added to deionized water, the pH of the medium is adjusted to 7.5. Following filter sterilization, aliquots are dispensed in 100 μl quantities to sterile microtiter plate wells. Dilutions of 2,2-dibromomalonamide (“DBMAL”) and/or “Biocide B” are then added to the microtiter plate. After preparing the combinations of actives as illustrated below, each well is inoculated with 100 μl of a cell suspension containing ca. 1×10^6 cells per milliliter of a mixture of Pseudomonas aeruginosa, Klebsiella pneumoniae, Staphylococcus aureus, and Bacillus subtilis. The final total volume of medium in each well is […]. […] The resulting matrix allows testing of eight concentrations of each active and 64 combinations of actives in the ratios (of actives).
# (§4) Controls (not shown) contain the medium with no biocide added.
# (§5) Immediately after the microtiter plates are prepared, the optical density (OD) readings for each well is measured at 580 nm and the plates are then incubated at 37° C. for 24 hr. After the incubation period, the plates are gently agitated before OD580 values are collected. The OD580 values at T0 are subtracted from T24 values to determine the total amount of growth (or lack thereof) that occurs. These values are used to calculate the percent inhibition of growth caused by the presence of each biocide and each of the 64 combinations. A 90% inhibition of growth (I90) value is used as a threshold for calculating synergy index (SI) values with the following equation: Synergy Index=MDBMAL/CDBMAL+MB/CB
# (§6) where • CDBMAL: Concentration of DBMAL required to inhibit at least 90% of bacterial growth when used alone • CB: Concentration of biocide (B) required to inhibit at least 90% of bacterial growth when used alone. • MDBMAL: Concentration of DBMAL required to inhibit at least 90% of bacterial growth when used in combination with biocide (B). • MB: Concentration of biocide (B) required to inhibit at least 90% of bacterial growth when used in combination with DBMAL The SI values are interpreted as follows: • SI<1: Synergistic combination • SI=1: Additive combination • SI>1: Antagonistic combination
# (§7) In the Examples below, the amounts of biocides in the solution are measured in mg per liter of solution (mg/l). Since solution densities are approximately 1.00, the mg/1 measurement corresponds to weight and can be expressed as parts per million (ppm). Both units may therefore be used interchangeably in the Examples.
# [2] = as above; assay type: cell-based; conditions: Example 3
# From the text: as §1, §2, §3, §4, §5, §6, §7
structure (smiles),measurement,setting,value
"[Ag] [Ag, silver]",I90 (concentration required to inhibit at least 90% of bacterial growth when used alone),[1]; Example 1 Experiment 1,0.063 mg/L
same,I90 (concentration required to inhibit at least 90% of bacterial growth when used alone),[1]; Example 1 subsequent experiment (Experiment 2),0.125 ppm
"[Cu] [Cu, copper]",I90 (concentration required for at least 90% inhibition of growth),[1],0.78 mg/L
"NC(=O)C(Br)(Br)C(N)=O [DBMAL, 2,2-dibromomalonamide]",inhibition at 0.2 µg/mL,[2]; DBMAL Alone 0.20 mg/l,2%
same,inhibition at 0.39 µg/mL,[2]; DBMAL Alone 0.39 mg/l,0%
same,inhibition at 0.78 µg/mL,[2]; DBMAL Alone 0.78 mg/l,4%
same,inhibition at 1.56 µg/mL,[2]; DBMAL Alone 1.56 mg/l,9%
same,inhibition at 3.13 µg/mL,[2]; DBMAL Alone 3.13 mg/l,21%
same,inhibition at 6.25 µg/mL,[2]; DBMAL Alone 6.25 mg/l,29%
same,inhibition at 12.5 µg/mL,[2]; DBMAL Alone 12.50 mg/l,100%
same,inhibition at 25 µg/mL,[2]; DBMAL Alone 25.00 mg/l,100%
same,I90 (concentration required to inhibit at least 90% of bacterial growth when used alone),[1]; Example 1 Experiment 1,12.5 mg/L
same,I90 (concentration required for at least 90% inhibition of growth),[1],12.5 mg/L
"[Zn] [Zn, zinc, reference compound]",% Inhibition of Growth,[1]; Zn Alone 19.5 mg/l,19%
same,% Inhibition of Growth,[1]; Zn Alone 39.1 mg/l,12%
same,% Inhibition of Growth,[1]; Zn Alone 78.1 mg/l,18%
same,% Inhibition of Growth,[1]; Zn Alone 156.3 mg/l,23%
same,% Inhibition of Growth,[1]; Zn Alone 312.5 mg/l,33%
same,% Inhibition of Growth,[1]; Zn Alone 625.0 mg/l,74%
same,% Inhibition of Growth,[1]; Zn Alone 1250.0 mg/l,91%
same,% Inhibition of Growth,[1]; Zn Alone 2500.0 mg/l,92%
